Data set [1] relates to human umbilical vein endothelial cells (HUVEC). In words: Nitric oxide production (nitrite+nitrate, Griess reaction) in NAS-pretreated HUVEC. The format is cell-based. The following applies: HUVEC pretreated with 3 mM NAS; for NO production (nitrite+nitrate): 50, 100, or 200 mM compound, 5-22 hours. Here is the method: Cultured human umbilical vein endothelial cells (HUVEC) were pretreated with 3 mM N-acetylserotonin (NAS), an inhibitor of the enzyme sepiapterin reductase. Inhibition of this pathway typically results in loss of endogenous BH4, depressing the endogenous eNOS activity far below normal and provides an assay to test for restoration of eNOS activity.
Thus, subconfluent HUVECs were seeded in a 24-well plate and grown overnight in EGM2 medium (full growth medium). The next morning, fresh medium was added to the cells (300 μL/well), 3 mM NAS was added to the cells to decrease the endogenous BH4 levels. After an incubation of 1.5 hours, 50, 100, or 200 mM BH4 or compound of Example 5, Example 6, Example 7, or Example 9 were added to the cells. The cells were allowed to react with the BH4 or the compound of Example 5, Example 7, or Example 9 for 5-22 hours. The production of NO was then measured as changes in total (nitrite+nitrate) by the Griess reaction subsequent to nitrate reductase treatment. The percentage of nitrite+nitrate with BH4 or compound of Example 5, Example 7, or Example 9 is shown in FIG. 7 (after 5 hours); FIG. 8 (after 17 hours); and FIG. 9 (after 22 hours). The results for Example 6 are shown in FIG. 10 (after 5 hours) and FIG. 11 (after 20 hours).
A general note: Nitrite, measured by Griess reagent, commonly stands in for NO production.

Data set [2] in a line: Pharmacokinetics of BH4 and BH4 analogs given by oral gavage to monkeys. The following applies: fasted cynomolgus monkeys; for AUC0-t / Cmax: equivalent of 80 mg of BH4, n=3, plasma over 25 hours, standard deviation in parenthesis; for Tmax: equivalent of 80 mg of BH4, n=3, standard deviation in parenthesis. The format is in vivo. The protocol:
Fasted cynomolgus monkeys were given BH4 and BH4 analogs by oral gavage (n=3), such that the amount of the analog administered was the equivalent of 80 mg of BH4. The plasma concentrations of the BH4, when administered directly, or the analogs was measured at various time points over a 25 hour period. The PK data is also shown in the following table, wherein the number in parenthesis is the standard deviation.

Data set [3] in a line: Stability in human plasma. The format is in vitro ADME. The following applies: concentration of compound remaining over a 60 minute period; FIG. 3. The protocol:
(§1) The stability of various compounds as disclosed herein were tested in human and rat and in simulated gastric fluid. Each compound was tested over an hour period for concentration of the compound remaining at each time point. The results are shown in FIGS. 3 (human plasma stability), 4 (rat plasma stability), and 5 (simulated gastric fluid stability) for the compounds of Example 2, 3, 4, and 20.

A short description of the next data set: Stability in rat plasma. It counts as in vitro ADME. The note with it: concentration of compound remaining over a 60 minute period; FIG. 4. The protocol: as §1
The nature of data set [4]: Stability in simulated gastric fluid. The format is in vitro ADME. The following applies: concentration of compound remaining over a 60 minute period; FIG. 5. Here is the method: as §1
Details of data set [5]: species or system male Sprague Dawley rats. The note with it: male, Sprague Dawley, rat, in vivo, po. Here is the method: This example allows for comparison of the pharmacokinetics of the analog (Compound I) versus that of BH4 following single oral administration in rats.
With respect to the administered BH4, the maximum total biopterin concentrations in plasma 2 hrs and 1 hr post-dosing were 108 ng/ml (i.e., about 3 fold the endogenous level) and 1227 ng/ml (i.e., about 30 fold the endogenous level), respectively. […] The ratio of reduced biopterin to total biopterins in plasma (i.e., the reduced-form ratio) was relatively static (73%-96%).

Where [6] appears, read: cynomolgus monkey, plasma, read-out: Tmax.

Structures can show the parent of a compound that is named as a salt. Where two headings read alike, the source gives them in different places.

Regarding `CCC(C)[C@H](N)C(=O)O[C@@H](C)[C@H](O)[C@H]1CNc2nc(N)[nH]c(=O)c2N1` (stereo in doubt) [Example 6, 2-Amino-3-methyl-pentanoic acid 2-(2-amino-4-oxo-3,4,5,6,7,8-hexahydro-pteridin-6-yl)-2-hydroxy-1-methyl-ethyl ester], in data set [1], the “effect on NAS-treated cells compared with Example 5” value (from here on “effect … compared with Example 5”) was “similar, if slightly reduced, effect” and the “NO production (nitrite+nitrate)” value is on record as “increased NO production in a dose-dependent manner”.

Take `CC(C)[C@H](N)C(=O)N1c2c(nc(N)[nH]c2=O)NC[C@@H]1[C@@H](O)[C@H](C)O` (stereo in doubt) [Example 13, 2-Amino-5-(2-amino-3-methyl-butyryl)-6-(1,2-dihydroxy-propyl)-5,6,7,8-tetrahydro-1H-pteridin-4-one hydrochloride]: in data set [2], the AUC0-t is 13.7 ng·h/mL, the Cmax is 2.2 ng/mL and the Tmax amounted to 6.0 h.

As for `CC[C@H](C)[C@H](N)C(=O)N1c2c(nc(N)[nH]c2=O)NC[C@@H]1[C@@H](O)[C@H](C)O` (stereo in doubt) [Example 14, 2-Amino-5-(2-amino-3-methyl-pentanoyl)-6-(1,2-dihydroxy-propyl)-5,6,7,8-tetrahydro-1H-pteridin-4-one hydrochloride], in data set [2], the AUC0-t is on record as 63.2 (25.6) ng hr/mL, the Cmax is given as 5.23 (2.1) ng/mL and the Tmax is recorded as 12.1 (11.9) hr.

With `C[C@H](O)[C@H](O)[C@H]1CNc2nc(N)[nH]c(=O)c2N1C(=O)[C@@H](N)CCCCN` (stereo in doubt) [Example 15, 2-Amino-5-(2,6-diamino-hexanoyl)-6-(1,2-dihydroxy-propyl)-5,6,7,8-tetrahydro-1H-pteridin-4-one dihydrochloride], in data set [2], the AUC0-t is listed as 36.8 (37.6) ng hr/mL, the Cmax is listed as 5.7 (1.7) ng/mL and the Tmax is reported as 12.0 (10.4) hr.

On to `C[C@H](O)[C@H](O)[C@H]1CNc2nc(N)[nH]c(=O)c2N1C(=O)[C@@H]1CCCN1` (stereo in doubt) [Example 16, 2-Amino-6-(1,2-dihydroxy-propyl)-5-(pyrrolidine-2-carbonyl)-5,6,7,8-tetrahydro-1H-pteridin-4-one dihydrochloride], for which, in data set [2], the AUC0-t is on record as 88.1 (31.5) ng hr/mL, the Cmax was 7.63 (2.7) ng/mL and the Tmax is given as 6.0 (0)^ hr.

For the molecule `C[C@H](O)[C@H](O)[C@H]1CNc2nc(N)[nH]c(=O)c2N1C(=O)OCc1ccccc1` (stereo in doubt) [Example 20, 2-Amino-6-(1,2-dihydroxy-propyl)-4-oxo-4,6,7,8-tetrahydro-1H-pteridine-5-carboxylic acid benzyl ester], the “stability in human plasma” value in data set [3] is recorded as “high level of stability”. The “stability in rat plasma” value in “Stability in rat plasma” is on record as “high level of stability”. The “stability in simulated gastric fluid” value in data set [4] is recorded as “high level of stability”.

As for `C[C@H](O)[C@H](O)[C@H]1CNc2nc(N)[nH]c(=O)c2N1` [BH4, Tetrahydrobiopterin], the “ratio of reduced biopterin to total biopterins in plasma (reduced-form ratio)” value in data set [5] is 73-96%. Also, in data set [5] (10 mg/kg), the “maximum total biopterin concentration relative to the endogenous level” value is given as “about 3 fold”, the “time of maximum total biopterin concentration post-dosing” value worked out at 2 h and the “time of return to the endogenous level post-dosing” value was 9 h. In addition, in data set [5] (100 mg/kg), the “maximum total biopterin concentration relative to the endogenous level” value is “about 30 fold”, the “time of maximum total biopterin concentration post-dosing” value came to 1 h and the “time of return to the endogenous level post-dosing” value was 24 h. Further, in data set [2], the AUC0-t was 288 (15.5) ng hr/mL, the Cmax is on record as 42.0 (12.6) ng/mL and the Tmax is 3.0 (0)^ hr.

Take `CC(=O)O[C@@H]([C@H](C)OC(C)=O)[C@H]1CNc2nc(N)[nH]c(=O)c2N1C(C)=O` [Example 2, Acetic acid 2-acetoxy-1-(5-acetyl-2-amino-4-oxo-3,4,5,6,7,8-hexahydro-pteridin-6-yl)-propyl ester]: the “stability in human plasma” value in data set [3] was “high level of stability”. For the same molecule, the “stability in rat plasma” value in “Stability in rat plasma” was “high level of stability”. In addition, the “stability in simulated gastric fluid” value in data set [4] is listed as “high level of stability”.

With `CCC(=O)O[C@@H]([C@H](C)OC(=O)CC)[C@H]1CNc2nc(N)[nH]c(=O)c2N1C(=O)CC` [Example 3, Propionic acid 1-(2-amino-4-oxo-5-propionyl-3,4,5,6,7,8-hexahydro-pteridin-6-yl)-2-propionyloxy-propyl ester], the “stability in human plasma” value in data set [3] is listed as “high level of stability”. For the same molecule, the “stability in rat plasma” value in the data set “Stability in rat plasma” was “high level of stability”. Also, the “stability in simulated gastric fluid” value in data set [4] is reported as “high level of stability”.

`C[C@H](OC(=O)[C@@H](N)CCCCN)[C@H](O)[C@H]1CNc2nc(N)[nH]c(=O)c2N1` [Example 7, 2,6-Diamino-hexanoic acid 2-(2-amino-4-oxo-3,4,5,6,7,8-hexahydro-pteridin-6-yl)-2-hydroxy-1-methyl-ethyl ester tri-hydrochloride]: the Tmax in data set [2] (setting [6]) is 2.67 h. In addition, in data set [2], the AUC0-t was 572 (148) ng hr/mL and the Cmax is on record as 82.3 (27.2) ng/mL. Further, in data set [1], the “effect … compared with Example 5” value was “similar, if slightly reduced, effect” and the “NO production (nitrite+nitrate)” value is on record as “increased NO production in a dose-dependent manner”.

In the case of `C[C@H](OC(=O)[C@@H]1CCCN1)[C@H](O)[C@H]1CNc2nc(N)[nH]c(=O)c2N1` [Example 9, Pyrrolidine-2-carboxylic acid 2-(2-amino-4-oxo-3,4,5,6,7,8-hexahydro-pteridin-6-yl)-2-hydroxy-1-methyl-ethyl ester dihydrochloride], in data set [2], the AUC0-t is given as 384 (214) ng hr/mL, the Cmax was 61.9 (34.8) ng/mL and the Tmax is listed as 2.0 (0)^ hr. In data set [1], the “effect … compared with Example 5” value is reported as “similar, if slightly reduced, effect” and the “NO production (nitrite+nitrate)” value is listed as “increased NO production in a dose-dependent manner”.

Regarding `CC(C)[C@H](N)C(=O)O[C@@H]([C@H](C)OC(=O)[C@@H](N)C(C)C)[C@H]1CNc2nc(N)[nH]c(=O)c2N1` [Example 10, 2-Amino-3-methyl-butyric acid 2-(2-amino-3-methyl-butyryloxy)-1-(2-amino-4-oxo-3,4,5,6,7,8-hexahydro-pteridin-6-yl)-propyl ester trihydrochloride], the Tmax in data set [2] (setting [6]) was 1.83 h. Further, in data set [2], the AUC0-t is on record as 625 (294) ng hr/mL and the Cmax is 138 (123) ng/mL.

As to `C[C@H](OC(=O)[C@@H](N)CCCCN)[C@H](OC(=O)[C@@H](N)CCCCN)[C@H]1CNc2nc(N)[nH]c(=O)c2N1` [Example 11, 2,6-Diamino-hexanoic acid 2-(2-amino-4-oxo-3,4,5,6,7,8-hexahydro-pteridin-6-yl)-2-(2,6-diamino-hexanoyloxy)-1-methyl-ethyl ester pentahydrochloride], in data set [2], the AUC0-t is given as 617 (336) ng hr/mL, the Cmax was 115 (65.4) ng/mL and the Tmax is on record as 1.5 (0.09) hr.

For the molecule `C[C@H](OC(=O)[C@@H]1CCCN1)[C@H](OC(=O)[C@@H]1CCCN1)[C@H]1CNc2nc(N)[nH]c(=O)c2N1` [Example 12, Pyrrolidine-2-carboxylic acid 1-(2-amino-4-oxo-3,4,5,6,7,8-hexahydro-pteridin-6-yl)-2-(pyrrolidine-2-carbonyloxy)-propyl ester trihydrochloride], in data set [2], the AUC0-t is reported as 438 (211) ng hr/mL, the Cmax is listed as 73.6 (42.9) ng/mL and the Tmax is listed as 3.0 (1.0) hr.

The record behind these values is patent publication US20100016328A1, “PTERIN ANALOGS” (BioMarin Pharmaceutical, Inc., priority 2007, published 2010).
